The values that follow are results of earlier work, collected in patent US9220759B2, “Treatment of diabetic patients with a drug eluting stent and adjunctive therapy” (Abbott Cardiovascular Systems Inc., priority 2012, dated 2015).

Structures are written as SMILES.

The subject of this series is restenosis after bare metal stent implantation. Particulars: diabetic patients prescribed the drug, compared to the control group, study of limited size.

Regarding `CN(CCOc1ccc(CC2SC(=O)NC2=O)cc1)c1ccccn1` (stereo not shown) [rosiglitzone, rosiglitazone], the rate of restenosis entry is listed as “reduction in the rate of restenosis”.
